Like-named read-outs stand apart in the source and are kept apart here.
How the values were obtained:
[1] = pharmacokinetic studies in rats; details: male, Sprague-Dawley, rat; for clearance / half-life: iv; for bioavailability: po
Method: Male Sprague-Dawley rats, weighing 250-400 g, were obtained from Charles Rivers Laboratories. Pharmacokinetic studies were conducted in three groups of rats; each group contained three animals. All groups were dosed with a solution formulation. The first group of three rats received an intravenous dose, administered under isoflurane anesthetic. The second group received an intraperitoneal dose and the third group received an oral dose, administered by gavage. Sequential blood samples were obtained from a tail vein of each animal for 8-24 hours after dosing. Plasma was separated by centrifugation and stored frozen until analysis.
Half life […] and plasma clearance values are based on intravenous administration (3 micromole/kg).
Half life (t1/2) and plasma clearance values are based on intravenous administration (3 micromole/kg).

[2] = molecular target: T1, human CB2 receptors (Homo sapiens, UniProt P34972); assay: human CB2 radioligand binding assay ([3H]CP 55,940 competition); details: HEK293 membranes, 0.5 nM [3H]CP 55,940
T1 construct: expressed in transfected cells; host or cells: HEK293
T1 sequence (P34972 whole entry): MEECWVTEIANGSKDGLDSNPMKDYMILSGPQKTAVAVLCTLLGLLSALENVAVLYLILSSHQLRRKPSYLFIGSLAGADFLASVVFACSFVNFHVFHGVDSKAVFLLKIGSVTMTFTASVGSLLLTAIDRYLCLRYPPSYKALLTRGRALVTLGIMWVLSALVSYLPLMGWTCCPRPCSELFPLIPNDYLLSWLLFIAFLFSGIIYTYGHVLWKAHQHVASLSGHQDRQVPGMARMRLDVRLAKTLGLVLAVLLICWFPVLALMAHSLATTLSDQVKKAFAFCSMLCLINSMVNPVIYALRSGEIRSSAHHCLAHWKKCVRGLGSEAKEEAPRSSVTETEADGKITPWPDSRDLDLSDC
Outline: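 Displacement of 0.5 nM [3H]CP 55,940 over 0.01 nM-10 μM test compound, measured on human CB2 membranes from stably transfected HEK293 cells. Incubation 90 min at 30 °C in Tris/EDTA/MgCl2/BSA, pH 7.4, then filter-bound radioactivity counted; 10 μM unlabeled CP 55,940 defined nonspecific binding.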

[3] = molecular target: T2, Rat CB1 (Rattus norvegicus, UniProt P20272); assay: rat CB1 cyclase functional assay (HitHunter cAMP); assay type: cell-based; details: HEK cells, forskolin 37 μM; read-out: Rat CB1 cyclase (EC50)
T2 construct: expressed in transfected cells; host or cells: HEK
T2 sequence (P20272 whole entry): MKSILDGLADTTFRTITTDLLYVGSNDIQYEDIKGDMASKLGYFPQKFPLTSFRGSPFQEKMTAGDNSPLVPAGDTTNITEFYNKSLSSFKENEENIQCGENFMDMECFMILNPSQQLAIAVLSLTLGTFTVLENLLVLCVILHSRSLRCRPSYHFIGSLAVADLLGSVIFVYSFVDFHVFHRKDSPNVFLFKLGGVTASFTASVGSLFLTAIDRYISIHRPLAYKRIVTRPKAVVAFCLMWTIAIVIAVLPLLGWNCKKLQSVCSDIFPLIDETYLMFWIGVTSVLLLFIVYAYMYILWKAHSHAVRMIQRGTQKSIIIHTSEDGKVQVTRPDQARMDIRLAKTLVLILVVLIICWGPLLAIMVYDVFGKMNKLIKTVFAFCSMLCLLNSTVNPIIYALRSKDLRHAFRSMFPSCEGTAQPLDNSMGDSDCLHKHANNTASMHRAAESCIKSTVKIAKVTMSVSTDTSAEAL
Method: The cyclase functional assays were performed using the HitHunter™ cAMP assay kit from DiscoveRx (Fremont, Calif.) according to vendor's protocol. Briefly, HEK cells expressing CB2 or CB1 receptors (rat or human) were detached using cell dissociation buffer (Invitrogen, Carlsbad, Calif.), dispersed and placed in suspension at 10,000 cells per well in 96 well plates prior to the assay. Cell suspensions were incubated at 37° C. for 20 min with variable concentrations of test ligands and or 10 μM CP 55,940-positive control in the presence of a fixed concentration of forskolin (18 μM for rat CB2 and 37 μM for rat CB1) in Dulbescco's phosphate-buffered saline (Invitrogen, Carlsbad, Calif.) supplemented with bovine serum albumin (0.01% final concentration). The reactions were terminated by the addition of lysis buffer and the luminescence was detected following the procedure according to the manufacturer's instructions. EC50 values were calculated using sigmoidal dose-response curve fitting from Prism (GraphPad).

[4] = molecular target: T3, rat CB2 (Rattus norvegicus, UniProt Q9QZN9); assay: rat CB2 radioligand binding assay ([3H]CP 55,940 competition); parameters: expressed in transfected cells; host or cells: HEK293; details: HEK293 membranes, 0.5 nM [3H]CP 55,940
T3 sequence (Q9QZN9 1-360): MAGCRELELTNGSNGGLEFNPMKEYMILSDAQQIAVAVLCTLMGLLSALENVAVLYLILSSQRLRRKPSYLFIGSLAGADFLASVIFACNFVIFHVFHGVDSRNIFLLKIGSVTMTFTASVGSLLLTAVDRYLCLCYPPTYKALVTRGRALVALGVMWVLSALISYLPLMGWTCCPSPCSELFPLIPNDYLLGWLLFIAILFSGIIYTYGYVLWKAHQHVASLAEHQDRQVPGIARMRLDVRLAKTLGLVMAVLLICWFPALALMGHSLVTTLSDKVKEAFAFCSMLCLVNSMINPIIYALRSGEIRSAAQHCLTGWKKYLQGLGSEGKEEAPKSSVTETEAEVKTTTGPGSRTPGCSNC
Outline: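 Competition binding against 0.5 nM [3H]CP 55,940 (pH 7.4 buffer with 0.5 mg/mL BSA, 30 °C, 45 min), with displacers spanning 0.01 nM–10 μM at five concentrations. Receptor source: stably transfected HEK293 membranes, 20 μg/well. Nonspecific binding defined by 10 μM unlabeled CP 55,940; readout by filtration and counting.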

For `Cn1c(C(C)(C)C)c/c(=N\C(=O)c2cccc(C(F)(F)F)c2F)n1CC1CC1` [A, reference compound], the clearance ([1]; in vivo, 3 micromole/kg) was 10 mL/min/kg, the half-life ([1]; in vivo, 3 micromole/kg) was 0.7 h and the bioavailability ([1]; in vivo, 10 micromole/kg) was 26%.
Compound `CCCCn1/c(=N/C(=O)c2cc(Cl)ccc2OC)cc(C(C)(C)C)n1C` [B, reference compound] has a clearance ([1]; in vivo, 3 micromole/kg) of 40 mL/min/kg, a half-life ([1]; in vivo, 3 micromole/kg) of 1.7 h and a bioavailability ([1]; in vivo, 10 micromole/kg) of 11%.
In the case of `CC(C)Cn1/c(=N/C(=O)c2cccc(C(F)(F)F)c2F)cc(C(C)(C)C)n1C` [C, reference compound], the clearance ([1]; in vivo, 3 micromole/kg) is reported as 26.7 mL/min/kg, the half-life ([1]; in vivo, 3 micromole/kg) is reported as 0.8 h and the bioavailability ([1]; in vivo, 10 micromole/kg) is reported as 45%.
Compound `CCCCn1/c(=N/C(=O)c2cc(C(F)(F)F)ccc2Cl)cc(C(C)(C)C)n1C` [D, reference compound] has a clearance ([1]; in vivo, 3 micromole/kg) of 56.7 mL/min/kg, a half-life ([1]; in vivo, 3 micromole/kg) of 0.3 h and a bioavailability ([1]; in vivo, 10 micromole/kg) of 10%.
Compound `CCCCn1/c(=N/C(=O)c2cc(C(F)(F)F)ccc2OC)cc(C(C)(C)C)n1C` [E, reference compound] has a clearance ([1]; in vivo, 3 micromole/kg) of 33.3 mL/min/kg, a half-life ([1]; in vivo, 3 micromole/kg) of 2.9 h and a bioavailability ([1]; in vivo, 10 micromole/kg) of 9%.
Work on `CCCCn1cc(C(C)(C)C)o/c1=N\C(=O)c1cc(C(F)(F)F)ccc1OC[C@@H]1CCCN1C` [Example 76, N-[(2Z)-3-butyl-5-tert-butyl-1,3-oxazol-2(3H)-ylidene]-2-{[(2S)-1-methylpyrrolidin-2-yl]methoxy}-5-(trifluoromethyl)benzamide] yielded a Ki ([2]; read-out: human CB2 (Ki)) of 176 nM, an EC50 [3] of 2030 nM and a Ki ([4]; read-out: rat CB2 (Ki)) of 243 nM.
In the case of `CCCCCn1/c(=N/C(=O)c2cc(C(F)(F)F)ccc2OCC(C)(C)O)cc(C(C)(C)C)n1C` [Example 99, N-[(3E)-5-tert-butyl-1-methyl-2-pentyl-1,2-dihydro-3H-pyrazol-3-ylidene]-2-(2-hydroxy-2-methylpropoxy)-5-(trifluoromethyl)benzamide], the half-life ([1]; in vivo, 3 micromole/kg) is reported as 5.6 h, the clearance [1] is reported as 18.3 mL/min/kg and the bioavailability [1] is reported as 37%. It also gave a Ki ([2]; human CB2 (Ki, nM)) of 9.2 nM and a Ki ([4]; rat CB2 (Ki, nM)) of 4.4 nM.
In the case of `Cn1c(C(C)(C)C)c/c(=N\C(=O)c2cc(C(F)(F)F)ccc2OC[C@@H]2CCC(=O)N2)n1CC1CCC1` [Example 120, N-[(3E)-5-tert-butyl-2-(cyclobutylmethyl)-1-methyl-1,2-dihydro-3H-pyrazol-3-ylidene]-2-{[(2S)-5-oxopyrrolidin-2-yl]methoxy}-5-(trifluoromethyl)benzamide], the Ki ([2]; read-out: human CB2 (Ki)) is reported as 116 nM, the EC50 [3] is reported as greater than 27000 nM and the Ki ([4]; rat CB2 (Ki, nM)) is reported as 61 nM.
Compound `Cn1c(C(C)(C)C)c/c(=N\C(=O)c2cc([N+](=O)[O-])ccc2OCC(C)(C)O)n1C[C@H]1CCCO1` [Example 121, N-{(3E)-5-tert-butyl-1-methyl-2-[(2R)-tetrahydrofuran-2-ylmethyl]-1,2-dihydro-3H-pyrazol-3-ylidene}-2-(2-hydroxy-2-methylpropoxy)-5-nitrobenzamide] has a Ki ([2]; human CB2 (Ki, nM)) of 13 nM, an EC50 [3] of 4710 nM and a Ki ([4]; rat CB2 (Ki, nM)) of 7.7 nM.
Work on `Cn1c(C(C)(C)C)c/c(=N\C(=O)c2cc(C(F)(F)F)ccc2OCC(C)(C)C(=O)O)n1C[C@H]1CCCO1` [Example 124, 3-[2-[({(3E)-5-tert-butyl-1-methyl-2-[(2R)-tetrahydrofuran-2-ylmethyl]-1,2-dihydro-3H-pyrazol-3-ylidene}amino)carbonyl]-4-(trifluoromethyl)phenoxy]-2,2-dimethylpropanoic acid] yielded a Ki ([2]; read-out: human CB2 (Ki)) of 185 nM, an EC50 [3] greater than 27000 nM and a Ki ([4]; rat CB2 (Ki, nM)) of 43 nM.
`Cn1c(C(C)(C)C)c/c(=N\C(=O)c2cc(Br)ccc2OCC(C)(C)O)n1C[C@H]1CCCO1` [Example 128, 5-bromo-N-{(3E)-5-tert-butyl-1-methyl-2-[(2R)-tetrahydrofuran-2-ylmethyl]-1,2-dihydro-3H-pyrazol-3-ylidene}-2-(2-hydroxy-2-methylpropoxy)benzamide] gave a Ki ([2]; human CB2 (Ki, nM)) of 15 nM and a Ki ([4]; rat CB2 (Ki, nM)) of 4.9 nM.
For `CC(=O)NCCOc1ccc(C(F)(F)F)cc1C(=O)/N=c1\cc(C(C)(C)C)n(C)n1CC1CCC1` [Example 130, 2-[2-(acetylamino)ethoxy]-N-[(3E)-5-tert-butyl-2-(cyclobutylmethyl)-1-methyl-1,2-dihydro-3H-pyrazol-3-ylidene]-5-(trifluoromethyl)benzamide], the Ki ([2]; human CB2 (Ki, nM)) was 5 nM and the Ki ([4]; rat CB2 (Ki, nM)) was 2.9 nM.
`COC(=O)c1ccc(OCC(C)(C)O)c(C(=O)/N=c2\cc(C(C)(C)C)n(C)n2C[C@H]2CCCO2)c1` [Example 132, methyl 3-[({(3E)-tert-butyl-1-methyl-2-[(2R)-tetrahydrofuran-2-ylmethyl]-1,2-dihydro-3H-pyrazol-3-ylidene}amino)carbonyl]-4-(2-hydroxy-2-methylpropoxy)benzoate] showed a Ki ([2]; read-out: human CB2 (Ki)) of 127 nM and a Ki ([4]; read-out: rat CB2 (Ki)) of 51 nM.
With `CSCCCOc1ccc(C(F)(F)F)cc1C(=O)/N=c1\cc(C(C)(C)C)n(C)n1CC1CCC1` [Example 133, N-[(3E)-5-tert-butyl-2-(cyclobutylmethyl)-1-methyl-1,2-dihydro-3H-pyrazol-3-ylidene]-2-[3-(methylthio)propoxy]-5-(trifluoromethyl)benzamide] the Ki ([2]; human CB2 (Ki, nM)) was 13 nM and the Ki ([4]; rat CB2 (Ki, nM)) was 15 nM.
With `Cn1c(C(C)(C)C)c/c(=N\C(=O)c2cc(C(F)(F)F)ccc2OCCCS(C)(=O)=O)n1CC1CCC1` [Example 134, N-[(3E)-5-tert-butyl-2-(cyclobutylmethyl)-1-methyl-1,2-dihydro-3H-pyrazol-3-ylidene]-2-[3-(methylsulfonyl)propoxy]-5-(trifluoromethyl)benzamide] the Ki ([2]; human CB2 (Ki, nM)) was 22 nM and the Ki ([4]; rat CB2 (Ki, nM)) was 40 nM.
With `Cn1c(C(C)(C)C)c/c(=N\C(=O)c2cc(C(F)(F)F)ccc2OCC(C)(C)O)n1CCCC(F)(F)F` [Example 135, N-[(3E)-5-tert-butyl-1-methyl-2-(4,4,4-trifluorobutyl)-1,2-dihydro-3H-pyrazol-3-ylidene]-2-(2-hydroxy-2-methylpropoxy)-5-(trifluoromethyl)benzamide] the Ki ([2]; human CB2 (Ki, nM)) was 23 nM and the Ki ([4]; rat CB2 (Ki, nM)) was 5.5 nM.
In the case of `CCCCn1/c(=N/C(=O)c2cc(C(F)(F)F)ccc2SCC(C)O)cc(C(C)(C)C)n1C` (stereo not shown) [Example 136, N-[(3E)-2-butyl-5-tert-butyl-1-methyl-1,2-dihydro-3H-pyrazol-3-ylidene]-2-[(2-hydroxypropyl)thio]-5-(trifluoromethyl)benzamide], the Ki ([2]; human CB2 (Ki, nM)) is reported as 44 nM and the Ki ([4]; rat CB2 (Ki, nM)) is reported as 16 nM.
With `CCCCn1/c(=N/C(=O)c2cc(C(F)(F)F)ccc2SCC(C)(C)O)cc(C(C)(C)C)n1C` [Example 137] the Ki ([2]; human CB2 (Ki, nM)) was 55 nM and the Ki ([4]; rat CB2 (Ki, nM)) was 26 nM.
For `CCCCn1/c(=N/C(=O)c2cc([N+](=O)[O-])ccc2OCC(C)(C)O)cc(C(C)(C)C)n1C` [Example 138, N-[(3E)-2-butyl-5-tert-butyl-1-methyl-1,2-dihydro-3H-pyrazol-3-ylidene]-2-(2-hydroxy-2-methylpropoxy)-5-nitrobenzamide], the Ki ([2]; human CB2 (Ki, nM)) was 1.6 nM and the Ki ([4]; rat CB2 (Ki, nM)) was 19 nM.
Work on `CCCCn1/c(=N/C(=O)c2cc(C(F)(F)F)ccc2SCC(N)=O)cc(C(C)(C)C)n1C` [Example 140, 2-[(2-amino-2-oxoethyl)thio]-N-[(3E)-2-butyl-5-tert-butyl-1-methyl-1,2-dihydro-3H-pyrazol-3-ylidene]-5-(trifluoromethyl)benzamide] yielded a Ki ([2]; human CB2 (Ki, nM)) of 136 nM and a Ki ([4]; rat CB2 (Ki, nM)) of 11 nM.
`COc1ccc(C(F)(F)F)cc1C(=O)/N=c1\cc(C(C)(C)C)n(C)n1CC1CC1` [F, reference compound] gave a clearance ([1]; in vivo, 3 micromole/kg) of 63.3 mL/min/kg, a half-life ([1]; in vivo, 3 micromole/kg) of 2.1 h and a bioavailability ([1]; in vivo, 10 micromole/kg) of 11%.
With `CCCCn1/c(=N/C(=O)c2cc(C(F)(F)F)ccc2OCC(C)(C)OC)cc(C(C)(C)C)n1C` [G, reference compound] the clearance ([1]; in vivo, 3 micromole/kg) was 45 mL/min/kg, the half-life ([1]; in vivo, 3 micromole/kg) was 1.5 h and the bioavailability ([1]; in vivo, 10 micromole/kg) was 5%.

Reference: US8188135B2, “Compounds as cannabinoid receptor ligands” (priority 2008, dated 2012)
